Counter-ions that a name gives are not always drawn.
These compounds were tested on relapsed AML cells (assay: Drug sensitivity assay, 1,536-well, 3-day culture with individual approved drugs at 10 μM, viability by alamarBlue). Conditions: not given.
Format: cell-based, human
Procedure: Drug sensitivity assays were performed using a 1,536-well platform where all cells and reagents were deposited in wells using an acoustic liquid handling unit that is highly accurate for dispensing of nanoliter volumes of liquid. […] After dispensing the cells into the wells, an independent drug at a known concentration is added to each well and incubated with the cells. After three days, the percentage of live cells in each well is determined to assess the killing efficiency of each compound. […] Cell viability assays are known to those of skill in the art. See, for example, Pemovska et al., Individualized systems medicine strategy to tailor treatments for patients with chemorefractory acute myeloid leukemia. Cancer Discovery 3:1416-1429, 2013; Pabst et al., Identification of small molecules that support human leukemia stem cell activity ex vivo. Nature Methods 11:436-442, 2014; Baccelli et al., A novel approach for the identification of efficient combination therapies in primary human acute myeloid leukemia specimens. Blood Cancer Journal 7:e529, 2017. In studies described herein, the 1,536-well format was utilized, which allowed for use of four times fewer cells as well as less drug and media components due to the small assay volume of 5 microliters. […] Other compounds like CellTiter-Glo (Promega, Madison, Wis.) are equally appropriate reagents for determining cell viability.
Conditions for the drug screening assays were as described in Pabst et al., Identification of small molecules that support human leukemia stem cell activity ex vivo, Nature Methods 11:436-442, 2014). Using this protocol, cells were cultured in Iscove's Modified Dulbecco's Medium (IMDM), 15% BIT (bovine serum albumin, insulin, transferrin; Stem Cell Technologies 09500 (Vancouver, Calif.)), 100 ng/ml SCF (Shenandoah 100-04 (Warwick, Pa.)), 50 ng/ml FLT3L (Shenandoah 100-21), 20 ng/ml IL-3 (Shenandoah 100-80), 20 ng/ml G-CSF (Shenandoah 100-72), 10^-4 M β-mercaptoethanol, gentamicin (50 μg/ml) and ciprofloxacin (10 μg/ml).
Cells were removed from liquid nitrogen and placed in a 37° C. bath, just until thawed. For 1,536-well screens utilizing 6,000 wells about 100 million cells were thawed. The volume was doubled with pre-warmed culture media and placed on ice for about one to two minutes. The cells were brought to a final volume of about 8 to 10 mL before spinning down at 1,100 rpm for 5 min at 10° C. The pelleted cells were resuspended in 10 mL of culture media and plated in a tissue-culture treated T75 flask at a density of 1 to 2 million cells/ml. The cells were cultured overnight prior to fluorescence-activated cell sorting of viable cells on the following day.
After cells were cultured overnight, a cell scraper was used to remove any cells that adhered to the plastic. The cells were gently pipetted up and down to break up aggregates. Then, the entire volume was transferred to a 50 mL conical tube through a 70 micron cell strainer to remove cell clumps. The T75 flask was rinsed and scraped with about 10 mL HBSS and transferred to the same 50 mL conical tube through the strainer. The harvested cells were spun down at 1,100 rpm for 5 min at 10° C. The cells were then resuspendd in about 300-500 microliters FACS buffer (HBSS+2% FBS+1× propidium iodide) and transferred to a FACS tube. The tube was placed on ice and viable cells that are forward- and side-scatter gated on viable myeloid blasts were sorted by FACS (the scatter gate should exclude small lymphocytes, large myeloid cells, and debris). After sorting the required number of viable cells, the cells were spun down at 1,100 rpm for 5 min at 10° C. and subsequently resuspended at 4,000-4,500 cells per 5 microliter volume of complete culture media with growth factors and penicillin/streptomycin.

Compound | #Cases >70% cell death
CCCCCCCCCCCCCCCC[n+]1ccccc1 | 18

Same assay, conditions: number of relapsed AML cases out of 18 tested with >70% cell death; 10 μM, 3-day culture

Compound | #Cases >70% cell death
Cc1nc2ccc(CN(C)c3ccc(C(=O)N[C@@H](CCC(=O)O)C(=O)O)s3)cc2c(=O)[nH]1 [RALTITREXED] | 3
C[n+]1cc2c3c(ccc2c2ccc4cc5c(cc4c21)OCO5)OCO3 [SANGUINARIUM CHLORIDE] | 18
Nc1ccncc1 [4-AMINOPYRIDINE] | 1
Cc1ccc(S(=O)(=O)NC(=O)NN2CC3CCCC3C2)cc1 (stereo not drawn) [GLICLAZIDE] | 1
Clc1ccc(C(Cn2ccnc2)OCc2ccsc2Cl)c(Cl)c1 (stereo not drawn) [TIOCONAZOLE] | 1
CCN(CC)CCOc1ccc(C(=C(Cl)c2ccccc2)c2ccccc2)cc1 [CLOMIFENE] | 10
C[C@H]1[C@H](OC(=O)CCC(=O)O)O[C@@H]2O[C@@]3(C)CC[C@H]4[C@H](C)CC[C@@H]1[C@@]24OO3 [ARTESUNATE] | 5
CCCCN(CCCC)CCCOC(=O)c1ccc(N)cc1 [BUTACAINE] | 1
OC(Cn1cncn1)(Cn1cncn1)c1ccc(F)cc1F [FLUCONAZOLE] | 1
COc1ccc(S(=O)(=O)Nc2cccnc2Nc2ccc(O)cc2)cc1 [ABT-751] | 5
Nc1ccn([C@@H]2O[C@H](CO)[C@@H](O)C2(F)F)c(=O)n1 [GEMCITABINE] | 16
CC(=O)N1CCN(c2ccc(OCC3COC(Cn4ccnc4)(c4ccc(Cl)cc4Cl)O3)cc2)CC1 (stereo not drawn) [KETOCONAZOLE] | 5
COc1ccc2nc3cc(Cl)ccc3c(Nc3cc(CN4CCCC4)c(O)c(CN4CCCC4)c3)c2n1.O=P(O)(O)O.O=P(O)(O)O.O=P(O)(O)O.O=P(O)(O)O [PYRONARIDINE TETRAPHOSPHATE] | 9
COc1cc2c(cc1O)CC[C@@H]1[C@@H]2CC[C@]2(C)[C@@H](O)CC[C@@H]12 [2-METHOXYESTRADIOL] | 2
CCCOc1ccc2nc(NC(=O)OC)[nH]c2c1 [OXIBENDAZOLE] | 5
O=C(CCCCCCC(=O)Nc1cccnc1)NO [PYROXAMIDE] | 15
C[C@]12CC[C@@H]3c4ccc(OS(=O)(=O)O)cc4CC[C@H]3[C@@H]1CCC2=O [ESTROPIPATE] | 1
CN(c1ncccc1CNc1nc(Nc2ccc3c(c2)CC(=O)N3)ncc1C(F)(F)F)S(C)(=O)=O [PF-562271] | 18
O=C(/C=C/c1cccc(S(=O)(=O)Nc2ccccc2)c1)NO [BELINOSTAT] | 1
CC[C@@H](C(=O)[C@@H](C)[C@@H](O)[C@H](C)[C@@H]1O[C@@H]([C@@H](CC)C(=O)O)CC[C@@H]1C)[C@H]1O[C@]2(C=C[C@@H](O)[C@]3(CC[C@@](C)([C@H]4CC[C@](O)(CC)[C@H](C)O4)O3)O2)[C@H](C)C[C@@H]1C [SALINOMYCIN] | 10
CC(C)Oc1ccc(C(=O)N[C@H](CNC(=O)CN(C)C)Cc2ccc(-c3cn4cccc([C@H](C)O)c4n3)cc2)cc1Cl [GSK923295] | 8
Cc1[nH]c2ccccc2c1CCNCc1ccc(/C=C/C(=O)NO)cc1 [PANOBINOSTAT] | 1
C[C@H]1O[C@@H](O[C@H]2[C@@H](O)C[C@H](O[C@H]3[C@@H](O)C[C@H](O[C@H]4CC[C@@]5(C)[C@H](CC[C@@H]6[C@@H]5CC[C@]5(C)[C@@H](C7=CC(=O)OC7)CC[C@]65O)C4)O[C@@H]3C)O[C@@H]2C)C[C@H](O)[C@@H]1O [DIGITOXIN] | 18
CN1CCN(c2ccc3nc(-c4c(N)c5c(F)cccc5[nH]c4=O)[nH]c3c2)CC1 [GFKI-258] | 16

Compound | #Cases >70% cell death
C1CCC(C(CC2CCCCN2)C2CCCCC2)CC1 (stereo not drawn) [PERHEXILINE MALEATE] | 13
CC[C@H]1OC(=O)[C@H](C)[C@@H](O[C@H]2C[C@@](C)(OC)[C@@H](O)[C@H](C)O2)[C@H](C)[C@@H](O[C@@H]2O[C@H](C)C[C@H](N(C)C)[C@H]2O)[C@](C)(O)C[C@@H](C)CN(C)[C@H](C)[C@@H](O)[C@]1(C)O [AZITHROMYCIN] | 1
COc1cc([C@@H]2c3cc4c(cc3[C@H](O)[C@H]3COC(=O)[C@H]23)OCO4)cc(OC)c1OC [PODOFILOX] | 13
CC(=O)[C@@]1(O)CC[C@H]2[C@@H]3C=C(Cl)C4=CC(=O)[C@@H]5C[C@@H]5[C@]4(C)[C@H]3CC[C@@]21C [CYPROTERONE] | 1
FC(F)(F)c1ccc(/C=C/c2nc(COc3ccc(CCCCn4ccnn4)cc3)co2)cc1 [MUBRITINIB] | 1
CC[C@]1(O)C[C@@H]2CN(CCc3c([nH]c4ccccc34)[C@@](C(=O)OC)(c3cc4c(cc3OC)N(C)[C@H]3[C@@](O)(C(N)=O)[C@H](O)[C@]5(CC)C=CCN6CC[C@]43[C@@H]65)C2)C1 | 9
C#CCC(Cc1cnc2nc(N)nc(N)c2n1)c1ccc(C(=O)N[C@@H](CCC(=O)O)C(=O)O)cc1 (stereo partly drawn) [PRALATREXATE(FOLOTYN, PRALATREXATE] | 5
CC(C)c1cc(C(C)C)c(-c2csc(N(CCN(C)C)Cc3cccnc3)n2)c(C(C)C)c1 [FOROPAFANT] | 6
CC[C@H](CC#N)OC(=O)N[C@@H](C)c1cccc(NC(=O)Nc2ccc(-c3cnco3)c(OC)c2)c1 [AVN944] | 10
CN(C)c1ccc2nc3ccc(=[N+](C)C)cc-3sc2c1 [METHYLENE BLUE] | 18
C#C[C@]1(O)CC[C@H]2[C@@H]3[C@H](C)CC4=C(CCC(=O)C4)[C@H]3CC[C@@]21C [TIBOLONE] | 1
AMONAFIDE MALATE | 8
MONENSIN SODIUM [MONENSIN SODIUM (MONENSIN A IS SHOWN)] | 7
O=C(NCC1CCCCN1)c1cc(OCC(F)(F)F)ccc1OCC(F)(F)F (stereo not drawn) | 1
COc1cc2nccc(Oc3ccc(NC(=O)C4(C(=O)Nc5ccc(F)cc5)CC4)cc3)c2cc1OC [CABOZANTINIB] | 2
CN(C[C@@H]1COCCO1)S(=O)(=O)Nc1ccc2ccc3ncc(-c4cnn(C)c4)cc3c(=O)c2c1 [MK-2461] | 2
Clc1ccc(CCC(Cn2ccnc2)Sc2c(Cl)cccc2Cl)cc1 (stereo not drawn) [BUTOCONAZOLE] | 1
CO[C@H]1C[C@H](O[C@H]2[C@H](C)O[C@@H](O[C@@H]3/C(C)=C/C[C@@H]4C[C@@H](C[C@]5(C=C[C@H](C)[C@@H](C6CCCCC6)O5)O4)OC(=O)[C@@H]4C=C(C)[C@@H](O)[C@H]5OC/C(=C\C=C\[C@@H]3C)[C@]54O)C[C@@H]2OC)O[C@@H](C)[C@@H]1O [DORAMECTIN] | 18
Nc1nc(F)nc2c1ncn2[C@@H]1O[C@H](CO)[C@@H](O)[C@@H]1O [FLUDARABINE] | 16
Cc1c(Nc2ncccc2C(=O)O)cccc1C(F)(F)F [FLUXININ] | 3
C[C@H](CCC(=O)O)[C@H]1CC[C@H]2[C@@H]3[C@@H](O)C[C@@H]4C[C@H](O)CC[C@]4(C)[C@H]3CC[C@]12C [URSODIOL] | 2
COc1cc(NS(C)(=O)=O)ccc1Nc1c2ccccc2nc2ccccc12 [AMSACRINE] | 4
Cc1ccc2nc(N)[nH]c(=O)c2c1Sc1ccncc1 [NOLATREXED DIHYDROCHLORIDE] | 1

From US20210405025A1, “IDENTIFYING COMPOUNDS FOR TREATING CANCER AND USE THEREOF” (THE UAB RESEARCH FOUNDATION, priority 2018, published 2021)
